Data published in patent US9023340B2, “Wnt inhibitors for human stem cell differentiation” (ChemRegen, Inc., priority 2011, dated 2015).

Tests used:
Wnt signaling = experiment: Wnt assay (Super TOPflash/Wnt3a dual-luciferase reporter in 293T cells); assay type: cell-based; conditions: Homo sapiens, HEK-293T, TOPflash luciferase normalized to renilla; for inhibition at 1 µM: 1000 nM compound, read-out: Wnt Assay % inh. @ 1000 nM
Description: Wnt assay protocol: 293T cells were grown in DMEM-high glucose (phenol red) supplemented with 10% (v/v) FBS and 1 mM L-glutamine. 1 million (M) cells were transfected with 1 μg Super(7×)TOPflash (Addgene plasmid 12456: M50 Super 8× TOPflash; 1 μg Wnt3a)—and 0.1 μg TK-Renilla-Lux (pRL-TK vector)-vectors using lipofectamine 2000 reagent according to the manufacturer's protocol. Cells were allowed to adhere for 8-10 hours, lifted with trypsin/EDTA, centrifuged, homogenized and counted before seeding 25,000 cells/well onto 96-well plates. After letting cells settle and attach for 1-2 hours in the incubator, a dose of test compound (and media/DMSO controls) was added. Plates were incubated for 18-20 hours and luciferase activities were determined using a Dual-Luciferase assay kit according to the manufacturer's instructions. Chemiluminescence was recorder on a plate reader instrument, and firefly-derived luminescence was normalized against renilla luminescence. Data were derived from at least two independent experiments, with a minimum of three replicates per condition. Non-linear regression analysis (log dose/response) was done using Prism 5 software.

[1] = test system: hESC H9 lines carrying MYH6-mCherry reporters; experiment: Human embryonic stem cell high content screening assay (cardiogenesis, MYH6-mCherry reporter); assay type: cell-based; conditions: 1250 nM compound; MYH6-mCherry fluorescence readout normalized to DMSO treated wells
Description: Human embryonic stem cell (hESC) H9 lines carrying MYH6-mCherry reporters were maintained: in brief, cells were grown on a mouse embryonic fibroblast coated matrigel plate in Knock Out DMEM media supplemented with 20% Knock Out Serum Replacement and 8 ng/ml bFGF. For embryoid body (EB) differentiation, hESC were mechanically passaged onto gelatin-coated dishes preseeded with mouse embryonic fibroblasts. After 4 days hESC colonies were lifted off with a 10 minute 1 mg/ml collagenase IV treatment and directly differentiated in StemPro 34 with addition of 0.5 ng/ml Bmp4 from day 0-1, 10 ng/ml Bmp4, 5 ng/ml bFGF and 3 ng/ml Activin A from day 1-4. At day 4 and were dissociated gently to single cells with TrypLE. Single cells were then transferred in gelatin coated 384-well optical plates in StemPro 34 with […] FGF at a seeding density of 250,000 cells/cm^2. At this point cells were exposed to test compounds. At day 10, media with compound was removed and exchanged for a serum free media (SFM). T3, the thyroid hormone analog triiodothyronine, was added at day 10 to increase the red signal driven by the MYH6 promoter for more reliable imaging. […] For RT-qPCR analysis T3 treatment was omitted to avoid interference with the biological mRNA expression of MYH6. Media was changed to PBS at day 14 and red fluorescence was imaged on an InCell 1000 high throughput microscope. For the quantification of cardiac induction, image analysis was done with the Cyteseer Image Analysis Software package by measuring the total area and intensity of the MYH6-mCherry reporter in each well. The MYH6-expression levels indicated in the graphs represent the multiplication of the total area and intensity of red fluorescence.
For toxicity assessment the hESC cell line was engineered for screening with a H2B-GFP reporter, allowing quantification of the cell number. Using Cyteseer, total GFP signal was quantified in each well. Wells with a GFP reduction of 20% or more (relative to vehicle only controls) were flagged for toxicity and were manually confirmed under a bright field microscope for evidence of cell death.
For the screens, Z scores (Z score=(average of treated−average of DMSO)/StDev of DMSO) were calculated using the fluorescence readout for each concentration normalized to DMSO treated wells. Integrated Z scores over all concentrations were calculated by adding the Z scores of the 3 concentrations tested. Table 2 reports Z scores at a compound concentration of 1250 nM.

Compound | IC50 (Wnt signaling) [nM] | Cardiogenesis Assay Z score vs DMSO @ 1250 nM [1] | inhibition at 1 µM (Wnt signaling) [%]
O=C1[C@@H]2[C@@H]3CC[C@@H](C3)[C@@H]2C(=O)N1[C@H]1CC[C@H](C(=O)Nc2cccnc2)CC1 [Compound 1] | 42 | 0.6 | 
O=C1[C@@H]2[C@@H]3CC[C@@H](C3)[C@@H]2C(=O)N1[C@H]1CC[C@H](C(=O)Nc2ccncc2)CC1 [Compound 2] | 47 | 0.2 | 
CC(=O)c1ccccc1NC(=O)[C@H]1CC[C@H](N2C(=O)[C@@H]3[C@@H]4CC[C@@H](C4)[C@@H]3C2=O)CC1 [Compound 3] | 14 | 132.9 | 91 ± 1
O=C1[C@@H]2[C@@H]3CC[C@@H](C3)[C@@H]2C(=O)N1[C@H]1CC[C@H](C(=O)Nc2ccccn2)CC1 [Compound 4] | 86 | 1.8 | 
COc1ccc(NC(=O)[C@H]2CC[C@H](N3C(=O)[C@@H]4[C@@H]5CC[C@@H](C5)[C@@H]4C3=O)CC2)cn1 [Compound 5] | 344 |  | 75 ± 2
Cc1ccc(NC(=O)[C@H]2CC[C@H](N3C(=O)[C@@H]4[C@@H]5CC[C@@H](C5)[C@@H]4C3=O)CC2)cn1 [Compound 6] | 1380 |  | 48 ± 7
O=C1[C@@H]2[C@@H]3CC[C@@H](C3)[C@@H]2C(=O)N1[C@H]1CC[C@H](C(=O)Nc2cccnc2Cl)CC1 [Compound 7] | 166 | 3.1 | 
O=C1[C@@H]2[C@@H]3CC[C@@H](C3)[C@@H]2C(=O)N1[C@H]1CC[C@H](C(=O)Nc2ccc(C(F)(F)F)nc2)CC1 [Compound 8] | 870 |  | 46 ± 7
O=C1[C@@H]2[C@@H]3CC[C@@H](C3)[C@@H]2C(=O)N1[C@H]1CC[C@H](C(=O)Nc2ccnc(Cl)c2)CC1 [Compound 9] | 374 |  | 68 ± 4
COC(=O)c1ccccc1NC(=O)[C@H]1CC[C@H](N2C(=O)[C@@H]3[C@@H]4CC[C@@H](C4)[C@@H]3C2=O)CC1 [Compound 10] | 67 | 44.9 | 
O=C1c2ccccc2-c2cccc(NC(=O)[C@H]3CC[C@H](N4C(=O)[C@@H]5[C@@H]6CC[C@@H](C6)[C@@H]5C4=O)CC3)c21 [Compound 11] | 193 | 42.7 | 
CC(=O)c1ccccc1NC(=O)C1CCC(N2C(=O)[C@@H]3[C@@H]4CC[C@@H](C4)[C@@H]3C2=O)CC1 (stereo partly shown) [Compound 12] | 23 | 117.0 | 91 ± 1
O=C1[C@@H]2[C@@H]3CC[C@@H](C3)[C@@H]2C(=O)N1[C@H]1CC[C@H](C(=O)Nc2cncc(O)c2)CC1 [Compound 13] | 152 | 99.2 | 
O=C1CCCc2cccc(NC(=O)[C@H]3CC[C@H](N4C(=O)[C@@H]5[C@@H]6CC[C@@H](C6)[C@@H]5C4=O)CC3)c21 [Compound 14] | 19 | 69.6 | 
CC(=O)c1ncccc1NC(=O)[C@H]1CC[C@H](N2C(=O)[C@@H]3[C@@H]4CC[C@@H](C4)[C@@H]3C2=O)CC1 [Compound 17] | 2 | 236.2 | 
CC(=O)c1ccncc1NC(=O)[C@H]1CC[C@H](N2C(=O)[C@@H]3[C@@H]4CC[C@@H](C4)[C@@H]3C2=O)CC1 [Compound 18] | 287 | 0.2 | 
O=C1[C@@H]2[C@@H]3CC[C@@H](C3)[C@@H]2C(=O)N1[C@H]1CC[C@H](C(=O)Nc2ccc(Br)cn2)CC1 [Compound 19] |  |  | 68 ± 4
Cc1ccncc1NC(=O)[C@H]1CC[C@H](N2C(=O)[C@@H]3[C@@H]4CC[C@@H](C4)[C@@H]3C2=O)CC1 [Compound 20] |  |  | 0
Cc1cncc(NC(=O)[C@H]2CC[C@H](N3C(=O)[C@@H]4[C@@H]5CC[C@@H](C5)[C@@H]4C3=O)CC2)c1 [Compound 21] |  |  | 49 ± 5
